Data published in patent US8399512B2, “Biocompatible biodegradable fumagillin analog conjugates” (Mersana Therapeutics, Inc., priority 2007, dated 2013).

Tests used:
[1] = test system: human umbilical vein endothelial cells (HUVECs); assay: Inhibitory effect on HUVEC cell growth (MTS/PES colorimetry); type: cell-based; settings: cultured 5 days, MTS/PES absorbance 490 nm
Method: Using human umbilical vein endothelial cells (HUVECs), the effect of the fumagillin analog conjugates and the fumagillin analogs on cell growth was evaluated.
The HUVECs were added to M199 medium supplemented with 20% FBS, after which the cells were incubated at 37° C. under 5% CO2. 96-well plates were seeded at 5,000 cells/well in a total volume of 100 μL. The cells were left overnight to attach to the plate. Cells were subcultured a maximum of 15 times before being discarded.
To evaluate the inhibitory activity of the fumagillin conjugate or the fumagillin analog alone on the growth of HUVEC cells, the conjugate or fumagillin analog was dissolved in the required amount of 0.9% saline, vortexed briefly to wet and disperse the solids, followed by vortexing for a total of 30 min. […] The cells were treated with the conjugate solution or fumagillin analog solution at various concentrations ranging from 30 nM to 0.01 nM, and cultured for 5 days at 37° C.
Colorimetry was performed to determine the extent of cell growth by adding 20 μL of MTS/PES reagent to each well, incubation for 4 h at 37° C. followed by measuring the absorbance at 490 nm.

[2] = test system: B16F10 tumor cells; assay: Tumor growth delay in B16F10 mouse melanoma; type: in vivo; settings: IV, q3d × 4, BDF1 mice
Method: BDF1 female mice (N=6) with 1×10^6 B16F10 tumor cells positioned subcutaneous in the flank were treated with various fumagillin conjugates of the invention. Tumor growth was monitored in parallel with positive and negative controls of cyclophosphamide and saline respectively. Treatment began when tumors reached an average size of 80-120 mg and tumor volumes were measured two times per week until animals reached an endpoint tumor volume of 2 grams or 45 days, whichever came first. Conjugates were administered as solutions in saline intravenously at dose levels of 30-100 mg/kg (expressed as fumagillin analog equivalents) on a schedule of q3dx4. Treatment outcomes were assessed in terms of percent tumor growth delay (% TGD), (see FIG. 1) defined as the percent increase in median time to endpoint for mice treated with an agent compared to those treated with saline.

[3] = 80 mg/kg fumagillin analog equiv.
[4] = 60 mg/kg fumagillin analog equiv.

SMILES	IC50 ([1]; Homo sapiens, 120 h)	further results
COC(=O)C12CCC(C(=O)O[C@@H]3CC[C@]4(CO4)[C@@H](C4(C)O[C@@H]4CC=C(C)C)[C@@H]3OC)(CC1)CC2 (stereo partly drawn) [Compound 1]	< 0.025 µM	–
CO[C@H]1[C@H](C2(C)O[C@@H]2CC=C(C)C)[C@]2(CC[C@H]1OC(=O)NC(=O)CCl)CO2 (stereo partly drawn) [Compound 2]	< 0.025 µM	–
COC(=O)[C@@H](N)CSCC(=O)NC(=O)O[C@@H]1CC[C@]2(CO2)[C@@H](C2(C)O[C@@H]2CC=C(C)C)[C@@H]1OC (stereo partly drawn) [Compound 3]	< 0.025 µM	–
CO[C@H]1[C@H](C2(C)O[C@@H]2CC=C(C)C)[C@]2(CC[C@H]1OC(=O)/C=C/c1ccc(O)cc1)CO2 (stereo partly drawn) [Compound 4]	> 0.03 µM	–
CO[C@H]1[C@H](C2(C)O[C@@H]2CC=C(C)C)[C@]2(CC[C@H]1OC(=O)NCc1ccccc1)CO2 (stereo partly drawn) [Compound 5]	< 0.025 µM	–
CO[C@H]1[C@H](C2(C)O[C@@H]2CC=C(C)C)[C@]2(CC[C@H]1OC(=O)N[C@@H](C)c1ccccc1)CO2 (stereo partly drawn) [Compound 6]	< 0.025 µM	% TGD [2, 3]: 5-20%
CO[C@H]1[C@H](C2(C)O[C@@H]2CC=C(C)C)[C@]2(CC[C@H]1OC(=O)N1CCN(CCO)CC1)CO2 (stereo partly drawn) [Compound 7]	< 0.025 µM	% TGD [2, 3]: 5-20%
CCN1CCN(C(=O)O[C@@H]2CC[C@]3(CO3)[C@@H](C3(C)O[C@@H]3CC=C(C)C)[C@@H]2OC)CC1 (stereo partly drawn) [Compound 9]	< 0.025 µM	% TGD ([2]; 100 mg/kg fumagillin analog equiv.): 20-50%
CO[C@H]1[C@H](C2(C)O[C@@H]2CC=C(C)C)[C@]2(CC[C@H]1OC(=O)N1CCN(C(C)=O)CC1)CO2 (stereo partly drawn) [Compound 10]	< 0.025 µM	% TGD [2, 4]: 20-50%
CO[C@H]1[C@H](C2(C)O[C@@H]2CC=C(C)C)[C@]2(CC[C@H]1OC(=O)NCCc1ccc(N)cc1)CO2 (stereo partly drawn) [Compound 11]	< 0.025 µM	% TGD ([2]; 65 mg/kg fumagillin analog equiv.): 20-50%
CO[C@H]1[C@H](C2(C)O[C@@H]2CC=C(C)C)[C@]2(CC[C@H]1OC(=O)N[C@H](C)c1ccccc1)CO2 (stereo partly drawn) [Compound 12]	< 0.025 µM	% TGD [2, 3]: 5-20%
CO[C@H]1[C@H](C2(C)O[C@@H]2CC=C(C)C)[C@]2(CC[C@H]1OC(=O)/C=C/c1ccccc1)CO2 (stereo partly drawn) [Compound 13]	> 0.03 µM	% TGD [2, 3]: 5-20%
COC(=O)[C@@H](N)CSCC(=O)NC(=O)O[C@@H]1CC[C@]2(CO2)[C@@H](C2(C)O[C@@H]2CC=C(C)C)[C@@H]1OC (stereo partly drawn) [Compound 14]	–	IC50 [1]: < 0.025 µM
CO[C@H]1[C@H](C2(C)O[C@@H]2CC=C(C)C)[C@]2(CC[C@H]1OC(=O)C(=O)N(C)OC)CO2 (stereo partly drawn) [Compound 15]	> 0.03 µM	% TGD [2, 3]: >50%
COC(=O)C(=O)O[C@@H]1CC[C@]2(CO2)[C@@H](C2(C)O[C@@H]2CC=C(C)C)[C@@H]1OC (stereo partly drawn) [Compound 16]	> 0.03 µM	% TGD [2, 3]: 20-50%
CO[C@H]1[C@H](C2(C)O[C@@H]2CC=C(C)C)[C@]2(CC[C@H]1OC(=O)NCc1ccc(NC(C)=O)cc1)CO2 (stereo partly drawn) [Compound 17]	< 0.025 µM	–
CO[C@H]1[C@H](C2(C)O[C@@H]2CC=C(C)C)[C@]2(CC[C@H]1OC(=O)NCCc1ccc(NC(C)=O)cc1)CO2 (stereo partly drawn) [Compound 18]	< 0.025 µM	% TGD [2, 3]: 5-20%
CO[C@H]1[C@H](C2(C)O[C@@H]2CC=C(C)C)[C@]2(CC[C@H]1NC(=O)c1ccc([N+](=O)[O-])cc1)CO2 (stereo partly drawn) [Compound 19]	< 0.025 µM	% TGD ([2]; 40 mg/kg fumagillin analog equiv.): 20-50%
CO[C@@H]1C(=O)CC[C@]2(CO2)[C@H]1C1(C)O[C@@H]1CC=C(C)C (stereo partly drawn) [Compound 20]	< 0.025 µM	–
COc1cc(/C=C/C(=O)O[C@@H]2CC[C@]3(CO3)[C@@H](C3(C)O[C@@H]3CC=C(C)C)[C@@H]2OC)cc(OC)c1OC (stereo partly drawn) [Compound 21]	< 0.025 µM	–
CCOC(=O)CCN1CCN(C(=O)O[C@@H]2CC[C@]3(CO3)[C@@H](C3(C)O[C@@H]3CC=C(C)C)[C@@H]2OC)CC1 (stereo partly drawn) [Compound 22]	< 0.025 µM	% TGD ([2]; 30 mg/kg fumagillin analog equiv.): 5-20%
COc1ccc2c(ccn2C(=O)O[C@@H]2CC[C@]3(CO3)[C@@H](C3(C)O[C@@H]3CC=C(C)C)[C@@H]2OC)c1 (stereo partly drawn) [Compound 23]	< 0.025 µM	% TGD [2, 3]: 5-20%
CO[C@H]1[C@H](C2(C)O[C@@H]2CC=C(C)C)[C@]2(CC[C@H]1OC(=O)/C=C/C=C/C=C/C=C/C(=O)O)CO2 (stereo partly drawn) [Compound 24]	< 0.025 µM	–
CO[C@@H]1[C@H](O)CC[C@]2(CO2)[C@H]1C1(C)O[C@@H]1CC=C(C)C (stereo partly drawn) [Compound 25]	> 0.03 µM	% TGD [2, 3]: 20-50%

SMILES	IC50 ([1]; Homo sapiens, 120 h)	further results
CO[C@H]1[C@H](C2(C)O[C@@H]2CC=C(C)C)[C@]2(CC[C@H]1OC(=O)N1CC3CC1CN3)CO2 (stereo partly drawn) [Compound 26]	< 0.025 µM	% TGD [2, 4]: 5-20%
COC1=CCC[C@]2(CO2)[C@H]1C1(C)O[C@@H]1CC=C(C)C (stereo partly drawn) [Compound 27]	< 0.025 µM	% TGD ([2]; 50 mg/kg fumagillin analog equiv.): 5-20%
CO[C@H]1[C@H](C2(C)O[C@@H]2CC=C(C)C)[C@]2(CC[C@H]1NC(=O)NC(=O)CCl)CO2 (stereo partly drawn) [Compound 28]	< 0.025 µM	–
CCOC(=O)C1CCC(CNC(=O)O[C@@H]2CC[C@]3(CO3)[C@@H](C3(C)O[C@@H]3CC=C(C)C)[C@@H]2OC)CC1 (stereo partly drawn) [Compound 29]	< 0.025 µM	–
CO[C@H]1[C@H](C2(C)O[C@@H]2CC=C(C)C)[C@]2(CC[C@H]1OC(=O)NC(=O)CSc1ccc(N)cc1)CO2 (stereo partly drawn) [Compound 30]	< 0.025 µM	–
CO[C@H]1[C@H](C2(C)O[C@@H]2CC=C(C)C)[C@]2(CC[C@H]1OC(=O)NC(=O)CSc1ccc(C(=O)O)cc1)CO2 (stereo partly drawn) [Compound 34]	< 0.025 µM	–
CO[C@H]1[C@H](C2(C)O[C@@H]2CC=C(C)C)[C@]2(CC[C@H]1OC(=O)/C=C/c1ccc(OCCN(C)C)cc1)CO2 (stereo partly drawn) [Compound 36]	< 0.025 µM	–
COc1cc(/C=C/C(=O)N[C@@H]2CC[C@]3(CO3)[C@@H](C3(C)O[C@@H]3CC=C(C)C)[C@@H]2OC)cc(OC)c1OC (stereo partly drawn) [Compound 37]	0.025 to 0.1 µM	–
CO[C@H]1[C@H](C2(C)O[C@@H]2CC=C(C)C)[C@]2(CC[C@H]1NC(=O)C13CCC(C(=O)NCCCOC(=O)[C@H](C)N)(CC1)CC3)CO2 (stereo partly drawn) [Compound 41]	0.1 to 0.3 µM	–
CO[C@H]1[C@H](C2(C)O[C@@H]2CC=C(C)C)[C@]2(CC[C@H]1NC(=O)C13CCC(C(=O)NCCCOC(=O)C4CCCN4)(CC1)CC3)CO2 (stereo partly drawn) [Compound 42]	0.1 to 0.3 µM	–
COC(=O)C12CCC(C(=O)N[C@@H]3CC[C@]4(CO4)[C@@H](C4(C)O[C@@H]4CC=C(C)C)[C@@H]3OC)(CC1)CC2 (stereo partly drawn) [Compound 43]	< 0.025 µM	–
CO[C@H]1[C@H](C2(C)O[C@@H]2CC=C(C)C)[C@]2(CC[C@H]1NC(=O)CSc1ccc(N)cc1)CO2 (stereo partly drawn) [Compound 45]	< 0.025 µM	–
COC(=O)c1ccc(C(=O)N[C@@H]2CC[C@]3(CO3)[C@@H](C3(C)O[C@@H]3CC=C(C)C)[C@@H]2OC)cc1 (stereo partly drawn) [Compound 46]	< 0.025 µM	–
CO[C@H]1[C@H](C2(C)O[C@@H]2CC=C(C)C)[C@]2(CC[C@H]1OC(=O)NS(=O)(=O)N1CCN(C(C)=O)CC1)CO2 (stereo partly drawn) [Compound 47]	< 0.025 µM	–
CO[C@H]1[C@H](C2(C)O[C@@H]2CC=C(C)C)[C@]2(CC[C@H]1NC(=O)c1ccc(C(=O)NCCCO)cc1)CO2 (stereo partly drawn) [Compound 48]	< 0.025 µM	–
CO[C@H]1[C@H](C2(C)O[C@@H]2CC=C(C)C)[C@]2(CC[C@H]1NC(=O)C13CCC(C(=O)NCCCOC(=O)[C@@H]4CCCN4)(CC1)CC3)CO2 (stereo partly drawn) [Compound 49]	0.1 to 0.3 µM	–
CO[C@H]1[C@H](C2(C)O[C@@H]2CC=C(C)C)[C@]2(CC[C@H]1OC(=O)NCc1ccc(NC(=O)[C@H](C)N)cc1)CO2 (stereo partly drawn) [Compound 50]	< 0.025 µM	–
CO[C@H]1[C@H](C2(C)O[C@@H]2CC=C(C)C)[C@]2(CC[C@H]1OC(=O)NC(=O)CSc1cccc(NC(=O)CCC(=O)O)c1)CO2 (stereo partly drawn) [Compound 52]	< 0.025 µM	–
CO[C@H]1[C@H](C2(C)O[C@@H]2CC=C(C)C)[C@]2(CC[C@H]1NC(=O)N1CCN(CCO)CC1)CO2 (stereo partly drawn) [Compound 53]	0.025 to 0.1 µM	–
CO[C@H]1[C@H](C2(C)O[C@@H]2CC=C(C)C)[C@]2(CC[C@H]1OC(=O)N1CCN(CCOC(=O)CCC(=O)O)CC1)CO2 (stereo partly drawn) [Compound 54]	< 0.025 µM	–
CO[C@H]1[C@H](C2(C)O[C@@H]2CC=C(C)C)[C@]2(CC[C@H]1OC(=O)N1CCN(CCOC(=O)C3CCCN3C(=O)OCC3c4ccccc4-c4ccccc43)CC1)CO2 (stereo partly drawn) [Compound 55]	< 0.025 µM	–
CO[C@H]1[C@H](C2(C)O[C@@H]2CC=C(C)C)[C@]2(CC[C@H]1OC(=O)N1CCN(C(=O)[C@H](C)N)CC1)CO2 (stereo partly drawn) [Compound 56]	< 0.025 µM	–
CO[C@H]1[C@H](C2(C)O[C@@H]2CC=C(C)C)[C@]2(CC[C@H]1NC(=O)NCCc1ccc(N)cc1)CO2 (stereo partly drawn) [Compound 57]	< 0.025 µM	–
